Data taken from publication PMC4490784, “Compensatory induction of MYC expression by sustained CDK9 inhibition via a BRD4-dependent mechanism” (eLife, 2015).

Legend:
[1] = molecular target: JAK1(JH2domain-pseudokinase) (Homo sapiens, UniProt P23458); experiment: KINOMEscan binding assay; set-up: JAK1(JH2domain-pseudokinase); purchased DiscoveRx KINOMEscan
Experimental: (§1) As there are no commercial or in-house kinase assays available for CDK3, CDK5, CDK11 and CDK13, the inhibitory abilities of i-CDK9 toward these CDKs were thus evaluated in the DiscoveRx KINOMEscan assay, which is based on a proprietary active site-directed competition-binding platform ([Fabian et al., 2005]).
(§2) The inhibitory activity of i-CDK9 for CDK1-CycB (Upstate/Millipore), CDK2-CycA (Invitrogen), CDK4-CycD1 (Novartis), CDK7-CycH-MAT1 (Invitrogen), and CDK9-CycT1 (Invitrogen) was assessed in the AlphaScreen (PerkinElmer, Inc)-based kinase assay developed at Novartis. Briefly, each CDK–cyclin pair was pre-incubated with i-CDK9 for 15 min, followed by addition of kinase substrates (ELK for CDK1 and CDK2, RB for CDK4, and CDK7tide for CDK7 and CDK9). The mixture was incubated at room temperature for additional 4–5 hr. The reaction was stopped and read on Envision (PerkinElmer, Inc). Selectivity against a large panel of over 400 kinases was evaluated using the KINOMEscan platform (DiscoveRx, CA) employing a proprietary active site-directed competition binding assay ([Fabian et al., 2005]). The assay was conducted at two different concentrations of i-CDK9 (1 and 10 µM) by DiscoveRx.

[2] = molecular target: JAK1(JH1domain-catalytic) (Homo sapiens, UniProt P23458); experiment: KINOMEscan binding assay; set-up: JAK1(JH1domain-catalytic); purchased DiscoveRx KINOMEscan
Chain of JAK1(JH1domain-catalytic) (P23458 854-1154 limits assumed): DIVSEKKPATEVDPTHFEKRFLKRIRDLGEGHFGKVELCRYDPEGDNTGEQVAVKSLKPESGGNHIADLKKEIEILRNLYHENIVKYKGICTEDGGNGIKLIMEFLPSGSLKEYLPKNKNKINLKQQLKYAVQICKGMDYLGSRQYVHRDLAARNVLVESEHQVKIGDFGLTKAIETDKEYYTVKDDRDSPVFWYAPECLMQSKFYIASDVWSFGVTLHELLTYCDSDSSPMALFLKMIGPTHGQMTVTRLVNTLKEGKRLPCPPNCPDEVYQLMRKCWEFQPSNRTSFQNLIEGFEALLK
Experimental: as §1, §2

[3] = molecular target: JAK2(JH1domain-catalytic) (Homo sapiens, UniProt O60674); experiment: KINOMEscan binding assay; set-up: JAK2(JH1domain-catalytic); purchased DiscoveRx KINOMEscan
Experimental: as §1, §2

recombinant CDK12-CycK = molecular target: T1, recombinant CDK12-CycK (Homo sapiens, UniProt Q9NYV4); experiment: In vitro kinase reaction with baculovirus-produced recombinant kinase (SignalChem); assay type: biochemical
T1 construct: purchased SignalChem; host or cells: baculovirus-produced

CSK = molecular target: T2, CSK (Homo sapiens, UniProt P41240); experiment: KINOMEscan binding assay
T2 construct: purchased DiscoveRx KINOMEscan
How it was run: (§3)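 Selectivity profiling used a competition-binding format directed at the kinase active site. The inhibitor was screened at 1 and 10 µM over a panel exceeding 400 kinases.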

EGFR(L861Q) = molecular target: T3, EGFR(L861Q) (Homo sapiens, UniProt P00533, L861Q); experiment: KINOMEscan binding assay
T3 construct: purchased DiscoveRx KINOMEscan
How it was run: as §3

FLT3(ITD) = experiment: KINOMEscan binding assay
How it was run: as §3

MAP4K5 = molecular target: T4, MAP4K5 (Homo sapiens, UniProt Q9Y4K4); experiment: KINOMEscan binding assay; conditions: read-out: % Retention on Solid Support
T4 construct: purchased DiscoveRx KINOMEscan
T4 sequence (Q9Y4K4 whole entry): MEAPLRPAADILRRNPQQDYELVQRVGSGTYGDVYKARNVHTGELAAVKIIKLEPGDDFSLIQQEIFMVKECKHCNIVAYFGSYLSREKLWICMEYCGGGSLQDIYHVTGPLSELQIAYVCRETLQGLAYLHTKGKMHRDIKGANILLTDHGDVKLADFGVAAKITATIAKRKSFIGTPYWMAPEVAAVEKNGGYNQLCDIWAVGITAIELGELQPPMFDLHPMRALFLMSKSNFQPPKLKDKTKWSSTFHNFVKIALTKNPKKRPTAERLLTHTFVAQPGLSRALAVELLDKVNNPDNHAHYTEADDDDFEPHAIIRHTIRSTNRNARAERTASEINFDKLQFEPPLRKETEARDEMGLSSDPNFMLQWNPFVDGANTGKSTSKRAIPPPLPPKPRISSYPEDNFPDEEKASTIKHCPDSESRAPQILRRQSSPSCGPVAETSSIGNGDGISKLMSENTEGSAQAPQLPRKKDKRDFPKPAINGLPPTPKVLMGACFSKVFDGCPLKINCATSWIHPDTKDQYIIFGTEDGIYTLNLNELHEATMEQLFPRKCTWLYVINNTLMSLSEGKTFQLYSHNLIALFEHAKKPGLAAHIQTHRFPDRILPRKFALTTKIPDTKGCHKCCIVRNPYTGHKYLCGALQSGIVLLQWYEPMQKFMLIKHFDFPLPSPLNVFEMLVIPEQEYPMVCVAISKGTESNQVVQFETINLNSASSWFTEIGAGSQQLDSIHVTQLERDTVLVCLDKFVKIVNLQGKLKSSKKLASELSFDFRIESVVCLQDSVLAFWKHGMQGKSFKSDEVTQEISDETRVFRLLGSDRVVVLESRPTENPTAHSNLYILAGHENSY
How it was run: as §3

PHKG1 = molecular target: T5, PHKG1 (Homo sapiens, UniProt Q16816); experiment: KINOMEscan binding assay; conditions: read-out: % Retention on Solid Support
T5 construct: purchased DiscoveRx KINOMEscan
How it was run: as §3

[4] = molecular target: T6, TYK2(JH1domain-catalytic) (Homo sapiens, UniProt P29597); experiment: KINOMEscan binding assay
T6 construct: TYK2(JH1domain-catalytic); purchased DiscoveRx KINOMEscan
T6 sequence (P29597 871-1187 limits assumed): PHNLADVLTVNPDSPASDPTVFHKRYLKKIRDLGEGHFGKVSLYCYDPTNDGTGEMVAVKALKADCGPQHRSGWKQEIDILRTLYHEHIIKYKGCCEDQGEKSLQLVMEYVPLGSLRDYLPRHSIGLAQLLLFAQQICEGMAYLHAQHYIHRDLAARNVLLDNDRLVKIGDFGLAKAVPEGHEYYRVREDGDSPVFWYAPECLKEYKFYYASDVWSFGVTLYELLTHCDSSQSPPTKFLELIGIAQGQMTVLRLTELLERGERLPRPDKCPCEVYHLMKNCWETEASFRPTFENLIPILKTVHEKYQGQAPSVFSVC
How it was run: as §3

FLT3(D835H) = molecular target: T7, FLT3(D835H) (Homo sapiens, UniProt P36888, D835H); experiment: KINOMEscan binding assay; conditions: read-out: % Retention on Solid Support
T7 construct: purchased DiscoveRx KINOMEscan
How it was run: as §3

PCTK2 = molecular target: T8, PCTK2 (Homo sapiens, UniProt Q00537); experiment: KINOMEscan binding assay; conditions: read-out: % Retention on Solid Support
T8 construct: purchased DiscoveRx KINOMEscan
T8 sequence (Q00537 whole entry): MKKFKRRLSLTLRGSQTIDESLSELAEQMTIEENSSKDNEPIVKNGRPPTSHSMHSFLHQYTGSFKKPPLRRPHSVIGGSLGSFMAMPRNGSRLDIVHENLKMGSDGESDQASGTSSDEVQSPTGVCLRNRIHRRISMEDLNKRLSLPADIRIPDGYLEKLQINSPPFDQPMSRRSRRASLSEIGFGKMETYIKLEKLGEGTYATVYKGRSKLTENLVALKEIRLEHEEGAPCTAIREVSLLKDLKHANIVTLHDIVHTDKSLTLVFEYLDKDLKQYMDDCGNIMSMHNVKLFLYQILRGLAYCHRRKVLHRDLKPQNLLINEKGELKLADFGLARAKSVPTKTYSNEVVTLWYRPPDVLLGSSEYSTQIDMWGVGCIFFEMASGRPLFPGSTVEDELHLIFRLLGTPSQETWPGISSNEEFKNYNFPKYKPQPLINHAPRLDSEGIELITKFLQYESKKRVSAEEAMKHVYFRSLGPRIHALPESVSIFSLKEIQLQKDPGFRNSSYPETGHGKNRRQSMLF
How it was run: as §3

CLK2 = molecular target: T9, CLK2 (Homo sapiens, UniProt P49760); experiment: KINOMEscan binding assay; conditions: read-out: % Retention on Solid Support
T9 construct: purchased DiscoveRx KINOMEscan
T9 sequence (P49760 whole entry): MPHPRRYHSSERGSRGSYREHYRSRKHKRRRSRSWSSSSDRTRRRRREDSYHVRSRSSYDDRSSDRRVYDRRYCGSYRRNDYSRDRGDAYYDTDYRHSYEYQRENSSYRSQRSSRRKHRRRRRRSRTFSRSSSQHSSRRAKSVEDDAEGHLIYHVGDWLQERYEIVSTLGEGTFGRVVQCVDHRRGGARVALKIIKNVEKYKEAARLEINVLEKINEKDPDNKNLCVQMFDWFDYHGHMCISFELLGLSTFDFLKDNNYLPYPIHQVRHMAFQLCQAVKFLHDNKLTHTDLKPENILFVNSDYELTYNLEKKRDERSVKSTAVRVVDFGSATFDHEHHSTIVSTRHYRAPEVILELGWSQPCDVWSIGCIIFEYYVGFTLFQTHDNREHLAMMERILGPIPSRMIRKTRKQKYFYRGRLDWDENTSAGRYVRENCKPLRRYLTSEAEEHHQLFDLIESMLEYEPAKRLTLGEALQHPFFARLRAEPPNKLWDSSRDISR
How it was run: as §3

SRPK1 = molecular target: T10, SRPK1 (Homo sapiens, UniProt Q96SB4); experiment: KINOMEscan binding assay; conditions: read-out: % Retention on Solid Support
T10 construct: purchased DiscoveRx KINOMEscan
How it was run: as §3

KIT(L576P) = molecular target: T11, KIT(L576P) (Homo sapiens, UniProt P10721, L576P); experiment: KINOMEscan binding assay; conditions: read-out: % Retention on Solid Support
T11 construct: purchased DiscoveRx KINOMEscan
How it was run: as §3

BRSK1 = molecular target: T12, BRSK1 (Homo sapiens, UniProt Q8TDC3); experiment: KINOMEscan binding assay; conditions: read-out: % Retention on Solid Support
T12 construct: purchased DiscoveRx KINOMEscan
How it was run: as §3

PIK3CA(E542K) = molecular target: T13, PIK3CA(E542K) (Homo sapiens, UniProt P42336, E542K); experiment: KINOMEscan binding assay; conditions: read-out: % Retention on Solid Support
T13 construct: purchased DiscoveRx KINOMEscan
T13 sequence (P42336 whole entry E542K): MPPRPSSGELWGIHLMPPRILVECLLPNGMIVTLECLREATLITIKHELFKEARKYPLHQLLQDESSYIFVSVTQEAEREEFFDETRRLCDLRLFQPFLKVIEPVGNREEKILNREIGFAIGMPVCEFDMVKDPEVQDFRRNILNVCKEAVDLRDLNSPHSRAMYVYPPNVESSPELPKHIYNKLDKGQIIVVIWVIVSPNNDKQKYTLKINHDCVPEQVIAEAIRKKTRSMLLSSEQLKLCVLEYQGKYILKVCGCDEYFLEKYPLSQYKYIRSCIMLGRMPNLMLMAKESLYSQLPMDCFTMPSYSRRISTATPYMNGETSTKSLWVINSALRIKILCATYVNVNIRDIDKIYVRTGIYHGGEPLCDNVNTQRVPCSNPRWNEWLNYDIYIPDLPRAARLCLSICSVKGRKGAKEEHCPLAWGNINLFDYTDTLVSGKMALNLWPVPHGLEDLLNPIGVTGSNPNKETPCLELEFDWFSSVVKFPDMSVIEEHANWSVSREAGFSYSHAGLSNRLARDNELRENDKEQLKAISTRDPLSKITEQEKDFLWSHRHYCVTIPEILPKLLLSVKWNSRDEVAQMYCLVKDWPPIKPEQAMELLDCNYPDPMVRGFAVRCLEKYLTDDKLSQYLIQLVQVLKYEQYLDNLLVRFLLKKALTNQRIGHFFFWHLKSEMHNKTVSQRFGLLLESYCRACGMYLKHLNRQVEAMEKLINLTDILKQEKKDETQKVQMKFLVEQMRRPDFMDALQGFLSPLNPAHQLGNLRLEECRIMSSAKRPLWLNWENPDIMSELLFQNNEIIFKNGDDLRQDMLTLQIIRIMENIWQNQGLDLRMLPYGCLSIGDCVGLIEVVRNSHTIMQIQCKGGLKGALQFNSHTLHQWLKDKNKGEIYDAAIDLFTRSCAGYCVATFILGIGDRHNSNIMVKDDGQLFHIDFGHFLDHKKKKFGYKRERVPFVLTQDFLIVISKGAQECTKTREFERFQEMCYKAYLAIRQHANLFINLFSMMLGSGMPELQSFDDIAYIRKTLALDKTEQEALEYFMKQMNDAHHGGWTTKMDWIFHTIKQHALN
How it was run: as §3

QSK = molecular target: T14, QSK (Homo sapiens, UniProt Q9Y2K2); experiment: KINOMEscan binding assay
T14 construct: purchased DiscoveRx KINOMEscan
T14 sequence (Q9Y2K2 whole entry): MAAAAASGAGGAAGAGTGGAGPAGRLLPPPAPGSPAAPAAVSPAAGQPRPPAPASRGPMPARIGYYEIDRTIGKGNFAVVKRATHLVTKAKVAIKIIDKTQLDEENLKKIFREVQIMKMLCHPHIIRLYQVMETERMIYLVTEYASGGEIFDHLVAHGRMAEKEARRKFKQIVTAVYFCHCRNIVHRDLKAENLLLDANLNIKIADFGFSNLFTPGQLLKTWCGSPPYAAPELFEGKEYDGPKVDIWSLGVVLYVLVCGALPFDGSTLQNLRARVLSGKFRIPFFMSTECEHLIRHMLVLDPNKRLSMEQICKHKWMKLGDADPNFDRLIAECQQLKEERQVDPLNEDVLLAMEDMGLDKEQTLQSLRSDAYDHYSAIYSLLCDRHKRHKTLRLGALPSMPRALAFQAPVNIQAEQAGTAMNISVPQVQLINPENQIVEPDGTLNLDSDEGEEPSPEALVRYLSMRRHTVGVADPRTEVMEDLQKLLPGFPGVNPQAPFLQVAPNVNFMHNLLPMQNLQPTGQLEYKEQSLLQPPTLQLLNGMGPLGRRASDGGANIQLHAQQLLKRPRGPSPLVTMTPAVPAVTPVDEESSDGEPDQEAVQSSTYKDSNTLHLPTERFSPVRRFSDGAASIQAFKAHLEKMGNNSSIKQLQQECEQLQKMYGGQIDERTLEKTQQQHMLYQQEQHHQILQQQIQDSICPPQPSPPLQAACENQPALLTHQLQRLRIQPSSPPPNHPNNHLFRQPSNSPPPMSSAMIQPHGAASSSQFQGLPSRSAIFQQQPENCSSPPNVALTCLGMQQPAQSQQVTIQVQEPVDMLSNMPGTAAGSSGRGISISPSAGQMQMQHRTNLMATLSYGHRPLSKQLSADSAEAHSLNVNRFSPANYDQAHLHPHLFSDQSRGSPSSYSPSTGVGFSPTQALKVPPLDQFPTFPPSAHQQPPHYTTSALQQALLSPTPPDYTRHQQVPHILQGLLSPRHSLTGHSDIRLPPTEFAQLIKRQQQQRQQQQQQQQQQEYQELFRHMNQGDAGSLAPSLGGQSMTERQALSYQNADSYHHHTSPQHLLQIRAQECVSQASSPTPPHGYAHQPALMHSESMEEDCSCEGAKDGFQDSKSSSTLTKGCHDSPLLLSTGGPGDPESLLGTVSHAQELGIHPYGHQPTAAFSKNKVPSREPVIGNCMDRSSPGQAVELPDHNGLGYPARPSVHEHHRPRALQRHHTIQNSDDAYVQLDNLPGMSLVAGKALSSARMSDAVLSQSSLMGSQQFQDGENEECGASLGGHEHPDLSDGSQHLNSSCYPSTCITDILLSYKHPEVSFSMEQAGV
How it was run: as §3

N[C@H]1CC[C@H](Nc2cc(-c3cccc(NCc4cccc(F)c4)n3)c(Cl)cn2)CC1 [i-CDK9, N2′-(trans-4-aminocyclohexyl)-5′-chloro-N6-(3-fluorobenzyl)-2,4′-bipyridine-2′,6-diamine]
% Retention on Solid Support ([1]; 1 µM i-CDK9): 85%
% Retention on Solid Support ([1]; 10 µM i-CDK9): 81%
% Retention on Solid Support ([2]; 1 µM i-CDK9): 100%
% Retention on Solid Support ([2]; 10 µM i-CDK9): 100%
% Retention on Solid Support ([3]; 1 µM i-CDK9): 76%
% Retention on Solid Support ([3]; 10 µM i-CDK9): 84%
i-CDK9 concentration at which the kinase was significantly inhibited (recombinant CDK12-CycK): 640 to 1200 nM
% Retention on Solid Support (CSK; 1 µM i-CDK9): 100%
% Retention on Solid Support (CSK; 10 µM i-CDK9): 100%
% Retention on Solid Support (EGFR(L861Q); 1 µM i-CDK9): 78%
% Retention on Solid Support (EGFR(L861Q); 10 µM i-CDK9): 74%
% Retention on Solid Support (FLT3(ITD); 1 µM i-CDK9): 100%
% Retention on Solid Support (FLT3(ITD); 10 µM i-CDK9): 72%
remaining binding at 1 µM (MAP4K5; 1 µM i-CDK9): 94%
remaining binding at 10 µM (MAP4K5; 10 µM i-CDK9): 85%
remaining binding at 1 µM (PHKG1; 1 µM i-CDK9): 100%
remaining binding at 10 µM (PHKG1; 10 µM i-CDK9): 100%
% Retention on Solid Support ([4]; 1 µM i-CDK9): 62%
% Retention on Solid Support ([4]; 10 µM i-CDK9): 100%
remaining binding at 1 µM (FLT3(D835H); 1 µM i-CDK9): 100%
remaining binding at 10 µM (FLT3(D835H); 10 µM i-CDK9): 70%
remaining binding at 1 µM (PCTK2; 1 µM i-CDK9): 14%
remaining binding at 10 µM (PCTK2; 10 µM i-CDK9): 0.05%
remaining binding at 1 µM (CLK2; 1 µM i-CDK9): 61%
remaining binding at 10 µM (CLK2; 10 µM i-CDK9): 26%
remaining binding at 1 µM (SRPK1; 1 µM i-CDK9): 100%
remaining binding at 10 µM (SRPK1; 10 µM i-CDK9): 70%
remaining binding at 1 µM (KIT(L576P); 1 µM i-CDK9): 91%
remaining binding at 10 µM (KIT(L576P); 10 µM i-CDK9): 100%
remaining binding at 1 µM (BRSK1; 1 µM i-CDK9): 100%
remaining binding at 10 µM (BRSK1; 10 µM i-CDK9): 89%
remaining binding at 1 µM (PIK3CA(E542K); 1 µM i-CDK9): 100%
remaining binding at 10 µM (PIK3CA(E542K); 10 µM i-CDK9): 100%
% Retention on Solid Support (QSK; 1 µM i-CDK9): 7.4%
% Retention on Solid Support (QSK; 10 µM i-CDK9): 92%
